Test results published in patent publication US9243025B2, “Compounds and pharmaceutical compositions for the treatment of viral infections” (Idenix Pharmaceuticals, LLC, priority 2011, dated 2016).
Like-named read-outs stand apart in the source and are kept apart here.

What was measured:
[1] = system: Huh-7 cells containing HCV Coni subgenomic replicon (GS4.1 cells); test: HCV replicon assay; format: cell-based; conditions: read-out: HCV Replicon EC50
Method: (§1) Huh-7 cells containing HCV Coni subgenomic replicon (GS4.1 cells), (C. Seeger; Fox Chase University, Philadelphia, Pa., USA), are grown in Dulbecco's Modified Eagle Medium (DMEM) supplemented with 10% fetal bovine serum (FBS), 2 mM L-glutamine, 110 mg/L sodium pyruvate, 1× non-essential amino acids, 100 U/mL penicillin-streptomycin and 0.5 mg/mL G418 (Invitrogen). For dose-response testing, the cells are seeded in 96-well plates at 7.5×10^3 cells/well in a volume of 50 μL and incubated at 37° C./5% CO2. Three hours after plating, 50 μL of ten 2-fold serial dilutions of compounds (highest concentration, 75 μM) are added and cell cultures were incubated at 37° C./5% CO2 in the presence of 0.5% DMSO. Alternatively, compounds are tested at a single concentration of 15 μM. In all cases, Huh-7 cells lacking the HCV replicon served as negative control. The cells are incubated in the presence of compounds for 72 hours after which they were monitored for expression of the NS4A protein by enzyme-linked immunosorbent assay (ELISA). For this, the plates were then fixed for 1 min with 1:1 acetone:methanol, washed twice with phosphate-buffered saline (PBS), 0.1% Tween 20, blocked for 1 hour at room temperature with TNE buffer containing 10% FBS and then incubated for 2 h at 37° C. with the anti-NS4A mouse monoclonal antibody A-236 (ViroGen) diluted in the same buffer. After washing three times with PBS, 0.1% Tween 20, the cells are incubated 1 hour at 37° C. with anti-mouse immunoglobulin G-peroxidase conjugate in TNE, 10% FBS. After washing as described above, the reaction is developed with O-phenylenediamine (Zymed). The reaction is stopped after 30 minutes with […] and the absorbance is read at 492 nm using a Sunrise Tecan spectrophotometer. EC50 values are determined from the % inhibition versus concentration data using a sigmoidal non-linear regression analysis based on four parameters with Tecan Magellan software. When screening at a single concentration, the results are expressed as % inhibition at 15 μM. For cytotoxicity evaluation, GS4.1 cells are treated with compounds as described above and cellular viability was monitored using a Cell Titer 96 AQueous One Solution Cell Proliferation Assay (Promega). CC50 values are determined from the % cytotoxicity versus concentration data with Tecan Magellan software as described above.
Compounds presented in the table below were assayed according to the replicon assay described above.

[2] = Cytotoxicity evaluation in GS4.1 cells (Cell Titer 96 AQueous One Solution Cell Proliferation Assay); format: cell-based; conditions: human, cellular viability, treated as in replicon assay, read-out: HCV Replicon CC50
Method: as §1

[3] = Hepatitis C virus, Huh-7, 72 h, GS4.1 cells, 72 hours incubation, NS4A expression by ELISA

Row | Compound | EC50 [1, 3] [µM] | CC50 at 72 h [2] [µM] | EC50 ([1]; Hepatitis C virus, Huh-7, 72 h) [µM] | EC50 ([1]; GS4.1 cells, 72 hours incubation, NS4A expression by ELISA) [µM]
1 | COC(=O)C(CC(C)C)NP(=O)(NC(CC(C)C)C(=O)OC)OC[C@H]1O[C@@H](n2cnc3c(OC)nc(N)nc32)[C@@](C)(O)C1O (stereo in doubt) [Compound 3] | 0.1 to 1 | > 75 | – | –
2 | COc1nc(N)nc2c1ncn2[C@@H]1O[C@H](COP(=O)(NC(CC(C)C)C(=O)OC(C)C)NC(CC(C)C)C(=O)OC(C)C)C(O)C1(C)O (stereo in doubt) [Compound 12] | 0.1 to 1 | > 75 | – | –
3 | CCOC(=O)C(Cc1ccccc1)NP(=O)(NC(Cc1ccccc1)C(=O)OCC)OC[C@H]1O[C@@H](n2cnc3c(OC)nc(N)nc32)C(C)(O)C1O (stereo in doubt) [Compound 16] | < 0.1 | ≤ 75 | – | –
4 | COC(=O)C(CC(C)C)NP(=O)(NC(CC(C)C)C(=O)OC)OC[C@H]1O[C@@H](n2cnc3c(OC)nc(N)nc32)[C@@]2(C)OC(=O)OC12 (stereo partly shown) [Compound 4] | < 0.1 | > 75 | – | –
5 | CCOC(=O)C(CC(C)C)NP(=O)(NC(CC(C)C)C(=O)OCC)OC[C@H]1O[C@@H](n2cnc3c(NC4CC4)nc(N)nc32)C(C)(O)C1O (stereo partly shown) [Compound 6] | < 0.1 | > 75 | – | –
6 | COC(=O)C(CC(C)C)NP(=O)(NC(CC(C)C)C(=O)OC)OC[C@H]1O[C@@H](n2cnc3c(NC4CC4)nc(N)nc32)C(C)(O)C1O (stereo partly shown) [Compound 8] | 0.1 to 1 | > 75 | – | –
7 | COc1nc(N)nc2c1ncn2[C@@H]1O[C@H](COP(=O)(NC(Cc2ccccc2)C(=O)OC(C)C)NC(Cc2ccccc2)C(=O)OC(C)C)C(O)C1(C)O (stereo partly shown) [Compound 13] | 0.1 to 1 | ≤ 75 | – | –
8 | C#CC1(F)C(O)[C@@H](COP(=O)(NC(CC(C)C)C(=O)OCC)NC(CC(C)C)C(=O)OCC)O[C@H]1n1cnc2c(=O)[nH]c(N)nc21 (stereo partly shown) [Compound 22] | > 10 | > 75 | – | –
9 | C#CC1(F)C(O)[C@@H](COP(=O)(NC(CC(C)C)C(=O)OC)NC(CC(C)C)C(=O)OC)O[C@H]1n1cnc2c(=O)[nH]c(N)nc21 (stereo partly shown) [Compound 23] | > 10 | > 75 | – | –
10 | CCOC(=O)[C@@H](NP(=O)(N[C@H](C(=O)OCC)c1ccccc1)OC[C@H]1O[C@@H](n2cnc3c(NC4CC4)nc(N)nc32)C(C)(O)C1O)c1ccccc1 (stereo partly shown) [Compound 30] | 1 to 10 | > 75 | – | –
11 | CCOC(=O)[C@H](C)NP(=O)(N[C@@H](C)C(=O)OCC)OC[C@H]1O[C@@H](n2cnc3c(NC4CC4)nc(N)nc32)[C@@](C)(O)C1O (stereo partly shown) [Compound 31] | 0.1 to 1 | > 75 | – | –
12 | CCOC(=O)[C@H](Cc1ccccc1)NP(=O)(N[C@@H](Cc1ccccc1)C(=O)OCC)OC[C@H]1O[C@@H](n2cnc3c(NC4CC4)nc(N)nc32)[C@@](C)(O)C1O (stereo partly shown) [Compound 32] | < 0.1 | > 75 | – | –
13 | CCCOc1nc(N)nc2c1ncn2[C@@H]1O[C@H](COP(=O)(N[C@@H](CC(C)C)C(=O)OCC)N[C@@H](CC(C)C)C(=O)OCC)C(O)C1(C)O (stereo partly shown) [Compound 33] | < 0.1 | ≤ 75 | – | –
14 | CCOC(=O)[C@H](CC(C)C)NP(=O)(N[C@@H](CC(C)C)C(=O)OCC)OC[C@H]1O[C@@H](n2cnc3c(N4CCOCC4)nc(N)nc32)C(C)(O)C1O (stereo partly shown) [Compound 34] | 0.1 to 1 | > 75 | – | –
15 | CCOC(=O)[C@H](CC(C)C)NP(=O)(N[C@@H](CC(C)C)C(=O)OCC)OC[C@H]1O[C@@H](n2cnc3c(N(C)C)nc(N)nc32)C(C)(O)C1O (stereo partly shown) [Compound 35] | < 0.1 | > 75 | – | –
16 | CCOC(=O)[C@H](CC(C)C)NP(=O)(N[C@@H](CC(C)C)C(=O)OCC)OC[C@H]1O[C@@H](n2cnc3c(N4CCCC4)nc(N)nc32)C(C)(O)C1O (stereo partly shown) [Compound 36] | < 0.1 | > 75 | – | –
17 | CCOC(=O)[C@H](CC(C)C)NP(=O)(N[C@@H](CC(C)C)C(=O)OCC)OC[C@H]1O[C@@H](n2cnc3c(=O)[nH]c(N)nc32)C(C)(O)C1O (stereo partly shown) [Compound 37] | 1 to 10 | > 75 | – | –
18 | CCOC(=O)[C@H](CC(C)C)NP(=O)(N[C@@H](CC(C)C)C(=O)OCC)OC[C@H]1O[C@@H](n2cnc3c(NC4CCCC4)nc(N)nc32)C(C)(O)C1O (stereo partly shown) [Compound 38] | < 0.1 | ≤ 75 | – | –
19 | CCCOC(=O)[C@H](CC(C)C)NP(=O)(N[C@@H](CC(C)C)C(=O)OCCC)OC[C@H]1O[C@@H](n2cnc3c(OC)nc(N)nc32)[C@@](C)(O)C1O (stereo partly shown) [Compound 43] | < 0.1 | ≤ 75 | – | –

Row | Compound | EC50 [1, 3] [µM] | CC50 at 72 h [2] [µM] | EC50 ([1]; Hepatitis C virus, Huh-7, 72 h) [µM] | EC50 ([1]; GS4.1 cells, 72 hours incubation, NS4A expression by ELISA) [µM]
20 | CCCCOC(=O)[C@H](CC(C)C)NP(=O)(N[C@@H](CC(C)C)C(=O)OCCCC)OC[C@H]1O[C@@H](n2cnc3c(OC)nc(N)nc32)[C@@](C)(O)C1O (stereo partly shown) [Compound 44] | < 0.1 | ≤ 75 | – | –
21 | C#CC1(F)C(O)[C@@H](COP(=O)(NCC(=O)OCC)NCC(=O)OCC)O[C@H]1n1cnc2c(=O)[nH]c(N)nc21 (stereo partly shown) [Compound 48] | 1 to 10 | > 75 | – | –
22 | CCOC(=O)[C@H](CC(C)C)NP(=O)(N[C@@H](CC(C)C)C(=O)OCC)OC[C@H]1O[C@@H](n2ccc(OC)nc2=O)[C@](C)(O)[C@@H]1O [Compound 55] | 0.1 to 1 | > 75 | – | –
23 | COc1ccn([C@@H]2O[C@H](COP(=O)(NCc3ccccc3)OCCSC(=O)C(C)(C)CO)[C@@H](O)[C@@]2(C)O)c(=O)n1 (stereo partly shown) [Compound 56] | < 0.1 | > 75 | – | –
24 | COc1nc(N)nc2c1ncn2[C@@H]1O[C@H](COP(=O)(NC(C)C)OCCSC(=O)C(C)(C)CO)C(O)C1(C)O (stereo partly shown) [Compound 57] | – | – | 0.1 to 1 | –
25 | COc1nc(N)nc2c1ncn2[C@@H]1O[C@H](COP(=O)(NCc2ccccc2)OCCSC(=O)C(C)(C)CO)C(O)C1(C)O (stereo partly shown) [Compound 57] | – | > 75 | < 0.1 | –
26 | CCOC(=O)[C@@H](NP(=O)(N[C@@H](C(=O)OCC)C(C)C)OC[C@H]1O[C@@H](n2cnc3c(OC)nc(N)nc32)C(C)(O)C1O)C(C)C (stereo partly shown) [Compound 58] | < 0.1 | > 75 | – | –
27 | CCOC(=O)[C@@H](NP(=O)(N[C@@H](C(=O)OCC)c1ccccc1)OC[C@H]1O[C@@H](n2cnc3c(OC)nc(N)nc32)C(C)(O)C1O)c1ccccc1 (stereo partly shown) [Compound 59] | 1 to 10 | > 75 | – | –
28 | COC(=O)C1CCCN1P(=O)(OC[C@H]1O[C@@H](n2cnc3c(OC)nc(N)nc32)C(C)(O)C1O)N1CCCC1C(=O)OC (stereo partly shown) [Compound 60] | 0.1 to 1 | > 75 | – | –
29 | CCOC(=O)[C@@H](CC(C)C)NP(=O)(N[C@H](CC(C)C)C(=O)OCC)OC[C@H]1O[C@@H](n2cnc3c(OC)nc(N)nc32)C(C)(O)C1O (stereo partly shown) [Compound 61] | – | > 75 | – | 1 to 10
30 | CCOC(=O)[C@H](CC(C)C)NP(=O)(N[C@H](CC(C)C)C(=O)OCC)OC[C@H]1O[C@@H](n2cnc3c(OC(C)C)nc(N)nc32)C(C)(O)C1O (stereo partly shown) [Compound 62] | < 0.1 | > 75 | – | –
31 | CCOC(=O)[C@H](CC)NP(=O)(N[C@H](CC)C(=O)OCC)OC[C@H]1O[C@@H](n2cnc3c(OC)nc(N)nc32)C(C)(O)C1O (stereo partly shown) [Compound 63] | 0.1 to 1 | > 75 | – | –
32 | CCOC(=O)[C@H](CC(C)C)NP(=O)(N[C@H](CC(C)C)C(=O)OCC)OC[C@H]1O[C@@H](n2cnc3c(OCC)nc(N)nc32)C(C)(O)C1O (stereo partly shown) [Compound 64] | < 0.1 | > 75 | – | –
33 | CCOC(=O)[C@H](CC(C)C)NP(=O)(N[C@@H](CC(C)C)C(=O)OCC)OC[C@H]1O[C@@H](n2cnc3c(OC)nc(N)nc32)C(C)(O)C1O (stereo partly shown) [Compound 65] | < 0.1 | > 75 | – | –
34 | CCOC(=O)[C@@H](NP(=O)(N[C@H](C(=O)OCC)C(C)CC)OC[C@H]1O[C@@H](n2cnc3c(N4CCCC4)nc(N)nc32)C(C)(O)C1O)C(C)CC (stereo partly shown) [Compound 67] | 0.1 to 1 | > 75 | – | –
35 | CCOC(=O)[C@@H](NP(=O)(N[C@H](C(=O)OCC)C(C)C)OC[C@H]1O[C@@H](n2cnc3c(N4CCCC4)nc(N)nc32)C(C)(O)C1O)C(C)C (stereo partly shown) [Compound 68] | < 0.1 | > 75 | – | –
36 | CCOC(=O)[C@H](Cc1ccccc1)NP(=O)(N[C@@H](Cc1ccccc1)C(=O)OCC)OC[C@H]1O[C@@H](n2cnc3c(N4CCCC4)nc(N)nc32)C(C)(O)C1O (stereo partly shown) [Compound 69] | < 0.1 | ≤ 75 | – | –
37 | CCOC(=O)C(NP(=O)(NC(C(=O)OCC)C(C)C)OC[C@H]1O[C@@H](n2cnc3c(NC4CC4)nc(N)nc32)C(C)(O)C1O)C(C)C (stereo partly shown) [Compound 70] | 0.1 to 1 | > 75 | – | –
